One may read the EC50 as the concentration needed to bring the measured effect to its halfway point. The term IC50 denotes the midpoint of a concentration-inhibition curve.

The target in experiment [1] is recombinant human CB1 receptor expressed in CHO cells (Homo sapiens, UniProt P21554). The experiment can be described thus: Cannabinoid Receptor-1 (CB1) Functional Activity Assay (intracellular cAMP, forskolin-stimulated CB1-CHO cells). The experiment is classed as cell-based. To be noted: for EC50: cAMP level in CB1-CHO cells with forskolin; for functional mode at CB1 receptor in the CB1 functional activity assay: cAMP readout in CB1-CHO cells. The procedure:
The functional activation of CB1 receptor is based on recombinant human CB1 receptor expressed in CHO cells (Felder et al, Mol. Pharmacol. 48: 443-450, 1995). To determine the agonist activity or inverse agonist activity of any test compound, 50 ul of CB1-CHO cell suspension are mixed with test compound and 70 ul assay buffer containing 0.34 mM 3-isobutyl-1-methylxanthine and 5.1 uM of forskolin in 96-well plates. The assay buffer is comprised of Earle's Balanced Salt Solution supplemented with 5 mM MgCl2, 1 mM glutamine, 10 mM HEPES, and 1 mg/mL bovine serum albumin. The mixture is incubated at room temperature for 30 minutes, and terminated by adding 30 ul/well of 0.5M HCl. The total intracellular cAMP level is quantitated using the New England Nuclear Flashplate and cAMP radioimmunoassay kit.
To determine the antagonist activity of test compound, the reaction mixture also contains 0.5 nM of the agonist CP55940 (or 50 nM of methanandamide), and the reversal of the CP55940 (or methanandamide) effect is quantitated with increasing concentration of the test compound. Intracellular cAMP is determined as described above. An IC50 value for the test compound is calculated from the titration curve.
A general note: Changes in cAMP serve as a functional read-out for many G protein-coupled receptors.

In experiment [2] the target is recombinant human CB1 receptor (Homo sapiens, UniProt P21554). The experiment can be described thus: Cannabinoid Receptor-1 (CB1) Binding Assay ([3H]CP-55940 displacement). To be noted: recombinant human CB1 receptor in CHO cell membranes, 0.6 nM [3H]CP-55940. The procedure:
Binding affinity determination is based on recombinant human CB1 receptor expressed in Chinese Hamster Ovary (CHO) cells (Felder et al, Mol. Pharmacol. 48: 443-450, 1995). Total assay volume is 250 μl (240 μl CB1 receptor membrane solution plus 5 μl test compound solution plus 5 μl [3H]CP-55940 solution). Final concentration of [3H]CP-55940 is 0.6 nM. Binding buffer contains 50 mM Tris-HCl, pH7.4, 2.5 mM EDTA, 5 mM MgCl2, 0.5 mg/mL fatty acid free bovine serum albumin and protease inhibitors (Cat#P8340, from Sigma). To initiate the binding reaction, 5 μl of radioligand solution is added, the mixture is incubated with gentle shaking on a shaker for 1.5 h at 30° C. The binding is terminated by using 96-well harvester and filtering through GF/C filter presoaked in 0.05% polyethylenimine. The bound radiolabel is quantitated using scintillation counter. Apparent binding affinities for various compounds are calculated from IC50 values (DeBlasi et al., Trends Pharmacol Sci 10: 227-229, 1989).

Sequence of recombinant human CB1 receptor (P21554 whole entry): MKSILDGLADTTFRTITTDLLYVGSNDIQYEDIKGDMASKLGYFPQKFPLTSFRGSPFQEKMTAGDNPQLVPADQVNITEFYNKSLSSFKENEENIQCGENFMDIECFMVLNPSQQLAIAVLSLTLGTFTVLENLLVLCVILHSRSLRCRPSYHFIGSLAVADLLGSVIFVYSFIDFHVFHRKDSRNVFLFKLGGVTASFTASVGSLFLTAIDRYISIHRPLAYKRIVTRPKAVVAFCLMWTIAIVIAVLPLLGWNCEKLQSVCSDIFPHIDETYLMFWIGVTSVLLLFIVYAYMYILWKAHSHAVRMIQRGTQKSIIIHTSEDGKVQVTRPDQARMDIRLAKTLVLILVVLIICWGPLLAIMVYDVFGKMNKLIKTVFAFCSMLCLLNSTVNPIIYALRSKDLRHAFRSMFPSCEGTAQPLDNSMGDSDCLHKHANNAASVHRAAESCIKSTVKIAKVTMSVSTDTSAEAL
Sequence of recombinant human CB1 receptor expressed in CHO cells (P21554 whole entry): as above

`CC(C)(C)c1nc2nc(-c3ccc(C#N)cc3Cl)c(-c3ccc(Cl)cc3)cc2c2n[nH]c(=O)n12` [Example 28, 4-[5-Tert-butyl-9-(4-chlorophenyl)-3-oxo-2,3-dihydropyrido[3,2-e][1,2,4]triazolo[4,3-c]pyrimidin-8-yl]-3-chlorobenzonitrile]: in experiment [1], the EC50 is below 100 nM and the “functional mode at CB1 receptor in the CB1 functional activity assay” value (“functional mode at CB1 receptor” below) is given as “functional inverse agonists”. In addition, in experiment [2], the IC50 amounted to 1 nM.

On to `CC(C)(C)c1nc2nc(-c3ccccc3Cl)c(-c3ccc(C#N)cc3)cc2c2n[nH]c(=O)n12` [Example 16, 4-[5-Tert-butyl-8-(2-chlorophenyl)-3-oxo-2,3-dihydropyrido[3,2-e][1,2,4]triazolo[4,3-c]pyrimidin-9-yl]benzonitrile], for which, in experiment [1], the EC50 was below 100 nM and the “functional mode at CB1 receptor” value is on record as “functional inverse agonists”. In experiment [2], the IC50 was 6 nM.

On to `CC(C)(C)c1nc2nc(-c3ccccc3-c3ccc(F)cc3)c(-c3ccc(F)cc3)cc2c2n[nH]c(=O)n12` [Example 27, 5-Tert-butyl-8-(4′-fluorobiphenyl-2-yl)-9-(4-fluorophenyl)pyrido[3,2-e][1,2,4]triazolo[4,3-c]pyrimidin-3(2H)-one], for which, in experiment [1], the EC50 was below 100 nM and the “functional mode at CB1 receptor” value is reported as “functional inverse agonists”. Also, the IC50 in experiment [2] came out at 6 nM.

For the compound `CC(=O)c1ccc(-c2cc3c(nc2-c2ccccc2Cl)nc(C(C)(C)C)n2c(=O)[nH]nc32)cc1` [Example 9, 9-(4-Acetylphenyl)-5-tert-butyl-8-(2-chlorophenyl)pyrido[3,2-e][1,2,4]triazolo[4,3-c]pyrimidin-3(2H)-one], in experiment [1], the EC50 is below 100 nM and the “functional mode at CB1 receptor” value is “functional inverse agonists”. In addition, the IC50 in experiment [2] was 10 nM.

For `CC(C)(C)c1nc2nc(-c3ccccc3Cl)c(-c3ccc(Cl)cc3)cc2c2n[nH]c(=O)n12` [Example 1, 5-Tert-butyl-8-(2-chlorophenyl)-9-(4-chlorophenyl)pyrido[3,2-e][1,2,4]triazolo[4,3-c]pyrimidin-3(2H)-one], in experiment [1], the EC50 was below 100 nM and the “functional mode at CB1 receptor” value was “functional inverse agonists”. Moreover, the IC50 in experiment [2] was 2 nM.

With `CC(C)(C)c1nc2nc(-c3ccccc3Cl)c(-c3ccc(-c4ncon4)cc3)cc2c2n[nH]c(=O)n12` [Example 32, 5-Tert-butyl-8-(2-chlorophenyl)-9-[4-(1,2,4-oxadiazol-3-yl)phenyl]pyrido[3,2-e][1,2,4]-triazolo[4,3-c]pyrimidin-3(2H)-one], in experiment [1], the EC50 is below 100 nM and the “functional mode at CB1 receptor” value was “functional inverse agonists”. Moreover, in experiment [2], the IC50 was 11 nM.

Regarding `CC(C)(C)c1nc2nc(-c3ccc(C#N)cc3C#N)c(-c3ccc(Cl)cc3)cc2c2n[nH]c(=O)n12` [Example 31, 4-[5-Tert-butyl-9-(4-chlorophenyl)-3-oxo-2,3-dihydropyrido[3,2-e][1,2,4]triazolo[4,3-c]pyrimidin-8-yl]isophthalonitrile], in experiment [1], the EC50 is below 100 nM and the “functional mode at CB1 receptor” value was “functional inverse agonists”. Also, the IC50 in experiment [2] turned out to be 4 nM.
